{"source": "paper PMC5952258", "about": "“Identification of a Mycothiol-Dependent Nitroreductase from Mycobacterium tuberculosis” (ACS Infectious Diseases, 2018)", "biological_target": "Rv2466c (rRv2466c; Mrx-2) (Mycobacterium tuberculosis, UniProt O53193)", "sequence (O53193 whole entry)": "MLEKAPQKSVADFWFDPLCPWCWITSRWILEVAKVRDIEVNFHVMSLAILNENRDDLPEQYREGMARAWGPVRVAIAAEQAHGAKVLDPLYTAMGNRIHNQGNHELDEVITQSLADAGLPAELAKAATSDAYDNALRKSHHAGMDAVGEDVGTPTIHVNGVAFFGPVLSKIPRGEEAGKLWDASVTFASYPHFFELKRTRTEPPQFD"}
{"smiles": "CC(=O)N[C@@H](CSSC[C@H](NC(C)=O)C(=O)N[C@H]1[C@@H](O[C@@H]2[C@H](O)[C@H](O)[C@@H](O)[C@H](O)[C@H]2O)O[C@H](CO)[C@@H](O)[C@@H]1O)C(=O)N[C@H]1[C@@H](O[C@@H]2[C@H](O)[C@H](O)[C@@H](O)[C@H](O)[C@H]2O)O[C@H](CO)[C@@H](O)[C@@H]1O", "note": "[mycothione]", "values": [{"measurement": "melting temperature shift", "value": "MSSM also caused a significant shift in the melting temperature"}]}
